The nature of assay [1]: Cytotoxicity against breast cancer cells. Type of assay: functional, cell-based. To be noted: Cancer cell lines.
Assay [2] has as its system KB. Nature of the assay: Cytotoxicity against human KB cells. Type of assay: functional, cell-based.
The subject of assay [3] is Mycobacterium tuberculosis. Nature of the assay: Antitubercular activity against Mycobacterium tuberculosis H37Ra. It counts as functional.

The structures appear in SMILES notation. In brackets after ≈: the same amount, converted by molar mass.

As to `COc1cc2c(cc1O)CCN[C@]21C[S+]([O-])[C@@H]2c3c(OC(C)=O)c(C)c4c(c3[C@H](COC1=O)N1[C@@H]2[C@@H]2c3c(cc(C)c(OC)c3O)C[C@@H]([C@@H]1C#N)N2C)OCO4` (stereo partly specified) [ECTEINASCIDIN 786], the IC50 (commonly the concentration that inhibits the measured activity by half) in assay [1] worked out at 7.6 nM; in assay [2], 0.15 nM. Besides, the MIC – broadly, the least concentration at which growth counts as inhibited – in assay [3] was found to be 2 µM (≈ 1.57 µg/mL).

As for `COc1cc2c(cc1O)CCN[C@]21CS[C@@H]2c3c(OC(C)=O)c(C)c4c(c3[C@H](COC1=O)N1[C@@H]2[C@H]2c3c(cc(C)c(OC)c3O)C[C@@H]([C@@H]1C#N)N2C)OCO4` [ECTEINASCIDIN 770], the IC50 in assay [1] came out at 2.5 nM; in assay [2], 0.034 nM. This molecule also registered a minimum inhibitory concentration (MIC) in assay [3] of 0.13 µM (≈ 0.1 µg/mL).

The record behind these values is ChEMBL document CHEMBL1150603, “Ecteinascidins 770 and 786 from the Thai tunicate Ecteinascidia thurstoni” (J Nat Prod, 2002).
